According to US7211596B2, “Stable high-concentration injection containing pyrazolone derivative” (Mitsubishi Pharma Corporation, priority 2001, dated 2007):
≈ marks a conversion by molar mass, not a printed value.

Experiment: Test 1: solubility of Edaravone in various aqueous solubilizer solutions (saturated solution at 4° C., HPLC)
Type: physicochemical
Conditions: aqueous with cosolvent or surfactant or cyclodextrin, thermodynamic from solid
Procedure: Water for injection (5 mL) was added to 5 mL of each of ethanol, propylene glycol, polyethylene glycol 400 and N,N-dimethylacetamide widely used as a solubilizer for an intravenous injection, followed by stirring. Edaravone was added to the resulting aqueous solubilizer solution and the mixture was stirred in a thermostat maintained at 4° C. by using a stirrer at a fixed but not bubbling speed all day and night. After completion of the stirring, a portion of Edaravone which had remained undissolved was checked visually to confirm that each solution thus obtained was a saturated aqueous solution of Edaravone. Then, the solution was quickly filtered through a membrane filter (pore size: 0.45 μm) kept at 4° C. and the amount of Edaravone contained in the filtrate was measured by HPLC method as explained below. Further, the maximum amount of each of the solubilizers used a day as an injection for intravenous administration was also shown (Iyakuhin-tenkabutu-jiten 2000 (published by Yakuji-nippou-sha), p. 127, 264 and 229 to 230. The maximum amount of ethanol was calculated based on the amount used for NIMOTOP IV (registered trademark, Bayer Co.)) and its solubilizing effect on Edaravone was calculated as a numerical term.
Measuring Method by HPLC and its Conditions:
By liquid chromatography (LC) using ethyl paraaminobenzoate as an internal standard substance, a peak area ratio of Edaravone to the internal standard substance was found and based on it, the concentration of Edaravone was determined. • Detector: Ultraviolet spectrophotometer (wavelength measured: 240 nm) • Column: A stainless tube having inside diameter of about 4 mm and length of about 15 cm and filled with octadecylsilylated silica-gel 5 μm was used at a fixed temperature near 50° C. • Mobile phase: A (3:1) mixed solution of 10 mM aqueous acetic acid solution and methanol, adjusted to pH 5.5 with aqueous ammonia • Flow rate: adjusted so that the retention time of Edaravone would be about 8 minutes.

solubility (50 v/v % N,N-dimethylacetamide in water, in 50 v/v % N,N-Dimethylacetamide, 4° C.): 20 mg/mL (≈ 115 mM)
solubility (50 v/v % ethanol in water, in 50 v/v % Ethanol, 4° C.): 10 mg/mL (≈ 57.4 mM)
solubility (50 v/v % polyethylene glycol 400 in water, in 50 v/v % Polyethylene glycol 400, 4° C.): 13 mg/mL (≈ 74.6 mM)
solubility (50 v/v % propylene glycol in water, in 50 v/v % Propylene glycol, 4° C.): 6 mg/mL (≈ 34.4 mM)
SMILES: CC1=NN(c2ccccc2)C(=O)C1 [Edaravone, 3-Methyl-l-phenyl-2-pyrazolin-5-one]
